Values of other authors, collected in patent US10857195B2, “Plant extracts for improving sleep” (Kemin Industries, Inc., priority 2014, dated 2020).

Test system: aging mice
Conditions: RA administered to aging mice

Compound: O=C(/C=C/c1ccc(O)c(O)c1)O[C@H](Cc1ccc(O)c(O)c1)C(=O)O [RA, Rosmarinic acid]
- catalase (CAT) activity in the brain: increased
- malondialdehyde (MDA) in the brain: decreasing
- superoxide dismutase (SOD) activity in the brain: increased
